Results taken from EP0842933B1, “NOVEL NAPHTHYRIDINE DERIVATIVES” (SUMITOMO PHARMACEUTICALS COMPANY, LIMITED, priority 1995, dated 1996).

How the values were obtained:
ACAT [1] = assay: Assay of ACAT inhibitory activity in a specimen prepared from rabbit liver; format: biochemical, New Zealand white rabbit; details: enzyme specimen from liver of cholesterol-fed rabbit, [1-^14C]oleoyl-CoA and endogenous cholesterol
Procedure: 1. Assay of ACAT inhibitory activity in a specimen prepared from rabbit liver
An enzyme specimen ACAT was prepared according to the method disclosed in the literature: J. Lipid. Research, 30, 681-690, 1989, from the liver of New Zealand white rabbit which had been fed with 1 % cholesterol feed for one month. The ACAT activity was determined according to the method disclosed in the literature: J. Lipid Research. 24, 1127-1134, 1983, i.e., using radioactive [1-^14C]oleoyl-CoA and endogenous cholesterol contained in the liver microsome, and calculated from the radioactivity of the labeled cholesterol oleate.

ACAT [2] = molecular target: T1, ACAT (Rattus norvegicus, UniProt O70536); assay: Assay of ACAT inhibitory activity in the macrophage derived from rat peritoneal; format: cell-based; details: 10^-6 M, radioactive oleic acid and exogenous cholesterol in liposome, read-out: ACAT inhibitory rate (%) 10^-6 M
T1 construct: endogenous in cells; host or cells: rat peritoneal macrophages (primary cells)
T1 sequence (O70536 1-545): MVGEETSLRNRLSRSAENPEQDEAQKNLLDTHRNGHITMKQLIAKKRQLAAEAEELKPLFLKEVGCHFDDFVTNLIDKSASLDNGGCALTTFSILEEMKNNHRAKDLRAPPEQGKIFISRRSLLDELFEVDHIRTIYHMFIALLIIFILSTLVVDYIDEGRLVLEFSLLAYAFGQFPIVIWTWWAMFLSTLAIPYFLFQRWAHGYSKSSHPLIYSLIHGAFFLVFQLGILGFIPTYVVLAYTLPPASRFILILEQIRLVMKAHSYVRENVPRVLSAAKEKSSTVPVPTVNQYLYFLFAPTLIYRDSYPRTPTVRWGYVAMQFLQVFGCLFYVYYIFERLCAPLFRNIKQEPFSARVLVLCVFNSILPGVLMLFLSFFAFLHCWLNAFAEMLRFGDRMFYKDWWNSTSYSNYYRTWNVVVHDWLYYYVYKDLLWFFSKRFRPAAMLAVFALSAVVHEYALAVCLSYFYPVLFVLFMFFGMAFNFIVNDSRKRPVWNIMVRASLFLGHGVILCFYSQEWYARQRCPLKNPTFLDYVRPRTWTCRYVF
Procedure: 2. Assay of ACAT inhibitory activity in the macrophage derived from rat peritoneal
The rat peritoneal-derived macrophage was prepared according to the method disclosed in the literature: Biochimica et Biophysica Acta, 1126, 73-80, 1992. The ACAT activity was determined by a modified method of the method disclosed in the above literature: Biochimica et Biophysica Acta, 1126, 73-80, 1992, i.e., using radioactive [9,10-H]oleic acid and exogenous cholesterol contained in the liposome which was re-constituted according to the method disclosed in the literature: Biochimica Biophysica Acta, 1213, 127-134, 1994, and calculated from the labeled cholesterolyl oleate.

CC(C)c1cccc(C(C)C)c1NC(=O)Nc1c(-c2ccccc2Cl)c2cccnc2n(C)c1=O [Example 4, N-[1-methyl-4-(2-chlorophenyl)-1,2-dihydro-2-oxo-1,8-naphthyridin-3-yl]-N'-(2,6-diisopropylphenyl)urea]
ACAT inhibitory rate (%) 10^-6 M (ACAT [1]): 87% | inhibition at 1 µM (ACAT [2]): 88%

CC(C)c1cccc(C(C)C)c1NC(=O)Nc1c(-c2ccccc2Cl)c2ccncc2n(C)c1=O [Example 6, N-[1-methyl-4-(2-chlorophenyl)-1,2-dihydro-2-oxo-1,7-naphthyridin-3-yl]-N'-(2,6-diisopropylphenyl)urea]
ACAT inhibitory rate (%) 10^-6 M (ACAT [1]): 82%

COc1cccc(-c2c(NC(=O)Nc3c(C(C)C)cccc3C(C)C)c(=O)n(C)c3ncccc23)c1 [Example 7, N-[1-methyl-4-(3-methoxyphenyl)-1,2-dihydro-2-oxo-1,8-naphthyridin-3-yl]-N'-(2,6-diisopropylphenyl)urea]
inhibition at 1 µM (ACAT [2]): 94%
